The results in this text go back to US20110124888A1, “STYRYLBENZOFURAN DERIVATIVES AS INHIBITORS FOR BETA-AMYLOID FIBRIL FORMATION AND PREPARATION METHOD THEREOF” (Korea Institute of Science and Technology, priority 2008, published 2011).

Structures are written as SMILES.

Series [1] addresses T1, beta-amyloid 42 (Aβ42) (Homo sapiens, UniProt P05067).
T1 construct: Beta-amyloid 42 (Aβ42) was dissolved in dimethylsulfoxide (DMSO)
Nature of the series: Inhibitory effect on the formation of beta-amyloid fibrils in vitro (ThT fluorescence assay). The following applies: for inhibition at 10 µM: 10 μM compound, Aβ42 25 μM, read-out: % Inhibition (10 μM); for IC50: In vitro ThT analysis (Aβ42: 25 μM); for % inhibition against the beta-amyloid 42 formation compared with curcumin: Tables 1 to 6, relative to curcumin. It is filed as biochemical.

Series [2] deals with hERG potassium ion channel (Homo sapiens, UniProt Q12809). Nature of the series: Inhibitory effect on hERG potassium ion channel (whole-cell patch clamp, HEK-hERG cells). It is filed as cell-based. To be noted: for IC50: whole-cell patch clamp, room temperature, mean ± standard error, read-out: Inhibitory efficacy (IC50). The protocol: 1) Model Cell Line and Culture
A HEK-hERG cell line (lonGate Biosciences, Frankfurt, Germany Co.), which expresses hERG stably, was cultured in a DMEM (Dulbecco's Modified Eagle's Medium, Sigma Co., St. Louis, Mo., USA) supplemented with 10% fetal bovine serum (FBS, Cambrex, Walkersville, Md., USA) and 0.5 mg/mL zeocin (Invitrogen, Carlsbad, Calif., USA). The cell line was subcultured 5 days after culture when 80% confluency was reached.
2) Preparation of Test Solution and Test Drug
A solution within an electrode used to measure the potassium ion current is composed of 115 mM K-aspartate, 20 mM KCl, 10 mM EGTA, 10 mM HEPES, 2.5 mM tris-phosphocreatine, 0.1 mM Na2GTP and 5 mM MgCl2 (pH 7.2, 290 mOsm/Kg H2O). A solution for an extracellular perfusate is composed of 135 mM NaCl, 5 mM KCl, 1 mM MgCl2, 2 mM CaCl2, 10 mM glucose, and 10 mM HEPES (pH 7.2, 300 mOsm/Kg H2O).
Test drug solutions were prepared by respectively diluting the inventive compounds with extracellular perfusate to a desired concentration. The prepared test drug solution was placed in a 7-array polyethylene tube connected into a capillary column for gas chromatography and was dropped from the tip of the column at a height of 100 μm or less to the HEK-hERG cell line.
3) Measurement of Ion Current
Potassium ion current was measured using EPC10 (Instrutech Co., NY, USA) patch clamp amplifier in accordance with the conventional whole-cell patch clamp method. Electrode used in the measurement was a borosilicate glass capillary (external diameter: 1.65 mm, inside diameter: 1.2 mm, Corning 7052, Gamer Glass Co., Claremont, Calif., USA) prepared by using P-97 Flaming-Brown micropipette puller (Sutter Instrument Co.). The electrode was coated with Sylgard 184 (Dow Corning Co., Midland, Mich., USA) and trimmed with microforge (Narishige Co., Tokyo, Japan). […] A culture dish containing HEK-hERG cells was placed in an inverted microscope (Nikon Co.) and extracellular perfusate containing the inventive compound was perfused at a rate of 1-2 mL/min. The membrane capacitance and series resistance of cell membrane were calibrated by 80% or more and potassium ion current was measured at a sampling rate of 2 kHz and a low-pass filter of 2 kHz (−3 dB; 8-pole Bassel filter). The test is conducted at room temperature (21-24° C.).
4) Data analysis and Statistics
The results were analyzed using Pulse/Pulsefit (v9.0, HEKA Elcktronik, Lambrecht, Germany) and Igor macro. The results were given as meant standard error.
A general note: The hERG channel carries a current that helps repolarise heart muscle cells.

Chain of hERG potassium ion channel (Q12809 whole entry): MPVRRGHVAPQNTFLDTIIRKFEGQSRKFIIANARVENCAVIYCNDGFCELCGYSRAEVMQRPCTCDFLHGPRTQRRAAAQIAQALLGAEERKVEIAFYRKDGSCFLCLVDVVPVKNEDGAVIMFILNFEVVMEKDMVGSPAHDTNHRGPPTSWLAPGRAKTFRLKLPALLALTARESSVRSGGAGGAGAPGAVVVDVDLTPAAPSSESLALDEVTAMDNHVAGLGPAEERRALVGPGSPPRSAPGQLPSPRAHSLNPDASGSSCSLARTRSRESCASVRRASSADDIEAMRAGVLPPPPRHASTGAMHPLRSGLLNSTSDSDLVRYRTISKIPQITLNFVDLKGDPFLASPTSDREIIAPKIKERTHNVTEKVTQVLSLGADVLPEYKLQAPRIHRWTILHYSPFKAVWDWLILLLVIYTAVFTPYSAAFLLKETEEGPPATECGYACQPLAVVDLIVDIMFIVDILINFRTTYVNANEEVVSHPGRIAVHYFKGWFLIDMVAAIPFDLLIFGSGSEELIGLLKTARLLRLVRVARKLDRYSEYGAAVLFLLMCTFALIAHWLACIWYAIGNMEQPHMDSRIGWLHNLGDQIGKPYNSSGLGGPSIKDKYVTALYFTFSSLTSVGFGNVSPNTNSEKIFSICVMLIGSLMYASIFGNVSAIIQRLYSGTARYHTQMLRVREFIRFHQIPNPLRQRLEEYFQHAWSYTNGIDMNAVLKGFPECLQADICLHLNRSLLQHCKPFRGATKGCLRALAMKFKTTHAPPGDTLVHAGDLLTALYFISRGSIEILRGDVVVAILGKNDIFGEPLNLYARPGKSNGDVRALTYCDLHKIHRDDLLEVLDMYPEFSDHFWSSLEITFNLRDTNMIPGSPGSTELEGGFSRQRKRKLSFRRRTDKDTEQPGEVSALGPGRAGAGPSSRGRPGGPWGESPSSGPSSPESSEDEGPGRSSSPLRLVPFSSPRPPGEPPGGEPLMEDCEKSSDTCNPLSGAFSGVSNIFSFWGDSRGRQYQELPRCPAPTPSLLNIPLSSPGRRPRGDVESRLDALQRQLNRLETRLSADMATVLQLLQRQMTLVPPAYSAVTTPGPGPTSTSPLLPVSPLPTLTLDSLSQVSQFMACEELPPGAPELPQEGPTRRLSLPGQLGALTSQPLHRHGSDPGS
T1 sequence (P05067 672-713 limits assumed): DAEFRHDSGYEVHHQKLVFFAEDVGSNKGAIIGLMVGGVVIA

On to `COc1ccc2cc(C=Cc3ccc(N(C)C)cc3)oc2c1` [Compound 9, 6-methoxy-2-(4-dimethylaminostyryl)benzofuran], for which, in series [1] (experiment of Table 7), the inhibition (usually the share of the control response that was lost under treatment) at 10 µM came out at 78.7%. Also, the IC50 – broadly, the concentration needed to halve the response being measured – turned out to be 70 nM in series [1] (experiment of Table 1), 972 nM in series [1] (experiment of Table 7) and 52100 ± 3680 nM in series [2]. In addition, in series [1], the “% inhibition against the beta-amyloid 42 formation compared with curcumin” value was “superior % inhibition”. In addition, the “inhibitory efficacy on hERG potassium ion channel (in words)” value in series [2] is on record as “insignificant inhibitory efficacy”.
As for `CNc1ccc(C=Cc2cc3cc(OC)ccc3o2)cc1` [Compound 17, 5-methoxy-2-(4-methylaminostyryl)benzofuran], in series [1] (experiment of Table 7), the inhibition at 10 µM came out at 74.6% and it took 725 nM to reach half-maximal inhibition (IC50). The 50% inhibitory concentration (IC50) in series [1] (experiment of Table 1) was 78 nM. In addition, in series [1], the “% inhibition against the beta-amyloid 42 formation compared with curcumin” value is reported as “superior % inhibition”. Also, in series [2], the “inhibitory efficacy on hERG potassium ion channel (in words)” value is given as “insignificant inhibitory efficacy” and the 50% inhibitory concentration (IC50) came to 47900 ± 5260 nM.
